Source: ChEMBL document CHEMBL4732221, “Design, synthesis and bioactivity evaluation of novel pyrazole linked phenylthiazole derivatives in context of antibacterial activity” (Bioorg Med Chem Lett, 2021)
In brackets after ≈: the same amount, converted by molar mass. Activity calls are given as the source filed them. The rule behind the calls is not given here.

Assays:
Staphylococcus aureus [1] = assay: Antibacterial activity against methicillin-resistant Staphylococcus aureus ATCC 43300 assessed as growth inhibition at 32 ug/ml after 18 hrs by monochromator plate assay relative to control; type: functional
Escherichia coli [2] = assay: Antibacterial activity against Escherichia coli ATCC 25922 assessed as growth inhibition at 32 ug/ml after 18 hrs by monochromator plate assay relative to control; type: functional; details: dose 32.0 µg/ml
Candida albicans [3] = assay: Antifungal activity against Candida albicans ATCC 90028 assessed as growth inhibition at 32 ug/ml after 36 hrs by monochromator plate assay relative to control; type: functional
Staphylococcus aureus [4] = assay: Antibacterial activity against methicillin-resistant Staphylococcus aureus ATCC 43300 assessed as growth inhibition after 18 hrs by monochromator plate assay; type: functional
Acinetobacter baumannii [5] = assay: Antibacterial activity against Acinetobacter baumannii ATCC 19606 assessed as growth inhibition at 32 ug/ml after 18 hrs by monochromator plate assay relative to control; type: functional; details: for inhibition: dose 32.0 µg/ml
Escherichia coli [6] = assay: Antibacterial activity against Escherichia coli ATCC 25922 assessed as growth inhibition after 18 hrs by monochromator plate assay; type: functional
Pseudomonas aeruginosa [7] = assay: Antibacterial activity against Pseudomonas aeruginosa ATCC 27853 assessed as growth inhibition at 32 ug/ml after 18 hrs by monochromator plate assay relative to control; type: functional
Klebsiella pneumoniae [8] = assay: Antibacterial activity against Klebsiella pneumoniae ATCC 700603 assessed as growth inhibition after 18 hrs by monochromator plate assay; type: functional
Acinetobacter baumannii [9] = assay: Antibacterial activity against Acinetobacter baumannii ATCC 19606 assessed as growth inhibition after 18 hrs by monochromator plate assay; type: functional
Pseudomonas aeruginosa [10] = assay: Antibacterial activity against Pseudomonas aeruginosa ATCC 27853 assessed as growth inhibition after 18 hrs by monochromator plate assay; type: functional
Cryptococcus neoformans [11] = assay: Antifungal activity against Cryptococcus neoformans var. grubii ATCC 208821) assessed as growth inhibition after 36 hrs by monochromator plate assay relative to control; type: functional
Candida albicans [12] = assay: Antifungal activity against Candida albicans ATCC 90028 assessed as growth inhibition after 36 hrs by monochromator plate assay; type: functional
Cryptococcus neoformans [13] = assay: Antifungal activity against Cryptococcus neoformans var. grubii ATCC 208821 assessed as growth inhibition at 32 ug/ml after 36 hrs by monochromator plate assay relative to control; type: functional; details: dose 32.0 µg/ml
Klebsiella pneumoniae [14] = assay: Antibacterial activity against Klebsiella pneumoniae ATCC 700603 assessed as growth inhibition at 32 ug/ml after 18 hrs by microplate reader assay relative to control; type: functional; details: for inhibition: dose 32.0 µg/ml
[15] = (§1) Haemolytic activity against human whole blood after 70 mins by monochromator plate reader; type: ADME, tissue-based; details: whole blood
Blood = assay: as §1; type: ADME, tissue-based; details: blood, 1.167 h
Enterococcus faecalis = assay: Antibacterial activity against vancomycin resistant Enterococcus faecalis assessed as reduction in bacterial growth by CLSI based broth microdilution method; type: functional; details: time 18 hrs
Staphylococcus aureus [16] = assay: Antibacterial activity against methicillin-resistant Staphylococcus aureus assessed as reduction in bacterial growth by CLSI based broth microdilution method; type: functional; details: time 18 hrs
Streptococcus pneumoniae = assay: Antibacterial activity against Streptococcus pneumoniae assessed as reduction in bacterial growth by CLSI based broth microdilution method; type: functional; details: time 18 hrs
Escherichia coli [17] = assay: Antibacterial activity against Escherichia coli assessed as reduction in bacterial growth by CLSI based broth microdilution method; type: functional; details: time 18 hrs
[18] = Inhibition of Escherichia coli DNA topoisomerase 4 assessed as reduction in decatenation of kinetoplast DNA measured after 1 hr by agarose gel electrophoresis method

Row | SMILES | inhibition at 32 µg/mL (Staphylococcus aureus [1]) [%] | inhibition (Escherichia coli [2]) | inhibition at 32 µg/mL (Candida albicans [3]) [%] | MIC (Staphylococcus aureus [4]) [µg/mL] | inhibition at 32 µg/mL (Acinetobacter baumannii [5]) [%] | MIC (Escherichia coli [6]) | inhibition at 32 µg/mL (Pseudomonas aeruginosa [7]) [%] | MIC (Klebsiella pneumoniae [8]) | MIC (Acinetobacter baumannii [9]) | MIC (Pseudomonas aeruginosa [10]) [µg/mL] | MIC (Cryptococcus neoformans [11]) | MIC (Candida albicans [12]) [µg/mL] | inhibition (Cryptococcus neoformans [13]) | inhibition (Klebsiella pneumoniae [14]) | inhibition at 32 µg/mL (Klebsiella pneumoniae [14]) [%] | inhibition (Acinetobacter baumannii [5]) | further results
1 | CCOC(=O)c1cc(-c2sc(-c3ccc(-c4ccccc4)cc3)nc2C)[nH]n1 | 13.6 | inactive | 5.6 | > 32 | 2.8 | inactive | 1.5 | inactive | > 32 µg/mL | > 32 | inactive | > 32 | inactive | inactive | – | – | –
2 | Cc1nc(-c2ccc(-c3ccccc3)cc2)sc1-c1cc(C(=O)Nc2cccc3ccccc23)n[nH]1 | 14.2 | inactive | 5.1 | > 32 | 0.9 | inactive | 8.2 | > 32 µg/mL | > 32 µg/mL | > 32 | inactive | > 32 | inactive | – | 8.9 | – | –
3 | Cc1ccc(NC(=O)c2cc(-c3sc(-c4ccc(-c5ccccc5)cc4)nc3C)[nH]n2)cc1C | 10.8 | inactive | 10.1 | > 32 | – | inactive | 2.2 | > 32 µg/mL | inactive | > 32 | inactive | > 32 | inactive | – | 3.5 | inactive | –
4 | COC(=O)c1cc(-c2sc(-c3ccc(I)cc3)nc2C)[nH]n1 | 14.2 | inactive | 5.1 | > 32 | 4.9 | inactive | 6.6 | inactive | > 32 µg/mL | > 32 | inactive | > 32 | inactive | inactive | – | – | –
5 | CCOC(=O)c1cc(-c2sc(-c3ccc(I)cc3)nc2C)[nH]n1 | 16.4 | inactive | 7.8 | > 32 | 6.6 | inactive | 16.6 | > 32 µg/mL | > 32 µg/mL | > 32 | inactive | > 32 | inactive | – | 15.1 | – | –
6 | CC[C@H](C)[C@H](NC(=O)CN)C(=O)NCC(=O)N[C@@H](C)C(=O)N[C@H](C(=O)N[C@@H](CC(C)C)C(=O)N[C@@H](CCCCN)C(=O)N[C@H](C(=O)N[C@@H](CC(C)C)C(=O)N[C@H](C(=O)N[C@H](C(=O)NCC(=O)N[C@@H](CC(C)C)C(=O)N1CCC[C@H]1C(=O)N[C@@H](C)C(=O)N[C@@H](CC(C)C)C(=O)N[C@H](C(=O)N[C@@H](CO)C(=O)N[C@@H](Cc1c[nH]c2ccccc12)C(=O)N[C@H](C(=O)N[C@@H](CCCCN)C(=O)N[C@@H](CCCNC(=N)N)C(=O)N[C@@H](CCCCN)C(=O)N[C@@H](CCCNC(=N)N)C(=O)N[C@@H](CCC(N)=O)C(=O)N[C@@H](CCC(N)=O)C(N)=O)[C@@H](C)CC)[C@@H](C)CC)[C@@H](C)O)[C@@H](C)O)C(C)C)C(C)C [MELITTIN] | – | – | – | – | – | – | – | – | – | – | – | – | – | – | – | – | HC50 at 1.167 h [15]: 8.5 µg/mL; HC10 (Blood): 2.7 µg/mL
7 | Cc1cccc(-c2ccc(-c3nc(C)c(-c4cc(C(=O)NC5CCCCC5)n[nH]4)s3)cc2)c1C | 7.2 | inactive | 6.1 | 32 (≈ 68 µM) | – | inactive | 7.1 | inactive | inactive | > 32 | inactive | > 32 | inactive | inactive | – | inactive | –
8 | Cc1nc(-c2ccc(-c3ccccc3)cc2)sc1-c1cc(C(=O)Nc2ccc(C(F)(F)F)cc2)n[nH]1 | 9.9 | inactive | 4.3 | > 32 | – | inactive | 2.8 | > 32 µg/mL | inactive | > 32 | inactive | > 32 | inactive | – | 0.8 | inactive | –
9 | Cc1ccc(-c2ccc(-c3nc(C)c(-c4cc(C(=O)NC5CCCCC5)n[nH]4)s3)cc2)cc1 | 23.8 | inactive | 18.9 | > 32 | 4.3 | inactive | 16.5 | > 32 µg/mL | > 32 µg/mL | > 32 | inactive | > 32 | inactive | – | 12.2 | – | –
10 | Clc1cccc(-n2nc(C3CCNCC3)cc2/C=C/c2c[nH]c3ccc(Cl)cc23)c1 | – | – | – | – | – | – | – | – | – | – | – | – | – | – | – | – | MIC (Enterococcus faecalis): 2 µg/mL (≈ 4.57 µM); MIC (Staphylococcus aureus [16]): 2 µg/mL (≈ 4.57 µM); MIC (Streptococcus pneumoniae): 2 µg/mL (≈ 4.57 µM); MIC (Escherichia coli [17]): 16 µg/mL (≈ 36.6 µM)
11 | c1ccc(COc2ccc(-c3cc(C4CCNCC4)[nH]n3)cc2)cc1 | – | – | – | – | – | – | – | – | – | – | – | – | – | – | – | – | IC50 [18]: 128 µg/mL (≈ 384 µM); MIC (Enterococcus faecalis): 64 µg/mL (≈ 192 µM); MIC (Staphylococcus aureus [16]): 64 µg/mL (≈ 192 µM)
12 | Cc1nc(-c2ccc(I)cc2)sc1-c1cc(C(=O)Nc2ccccc2)n[nH]1 | 19 | inactive | 4.6 | > 32 | – | inactive | 11.1 | > 32 µg/mL | inactive | > 32 | inactive | > 32 | inactive | – | 4.7 | inactive | –
13 | Cc1nc(-c2ccc(-c3cccc4ccccc34)cc2)sc1-c1cc(C(=O)NC2CCCCC2)n[nH]1 | 19.4 | inactive | 40.8 | > 32 | – | inactive | 6.1 | inactive | inactive | > 32 | inactive | > 32 | inactive | inactive | – | inactive | –
